The values that follow come from EPA's ToxValDB 9.5 (doi:10.2903/j.efsa.2018.5126).

The test system of series [1] is Anas platyrhynchos. The settings on record: acute; oral; unspecified; mortality.
Series [2] deals with Bibionidae. The settings on record: chronic/long-term; duration: 28 days.
The test system of series [3] is Oncorhynchus mykiss. The settings on record: acute; duration: 96 hours; mortality.
Series [4] relates to Tagia sp. The settings on record: chronic/long-term; duration: 56 days; growth.
Series [5] has as its system Apis mellifera. The settings on record: acute, mortality.
The test system of series [6] is Landoltia sp. To be noted: chronic/long-term; duration: 7 days; frond number.
The subject of series [7] is Rattus norvegicus. To be noted: for LD50: acute, mortality.
Series [8] deals with Navicula pelliculosa. To be noted: acute; duration: 72 hours; growth.
The test system of series [9] is Neomysis kadiakensis. The settings on record: chronic/long-term; duration: 28 days; reproduction.
Series [10] relates to Oryctolagus sp. To be noted: reproduction developmental; body weight.
Series [11] concerns Aphidius rhopalosiphi. Kind of series: LR50; higher = less toxic. To be noted: acute; mortality.
The subject of series [12] is Colinus virginianus. To be noted: chronic.

Molecules are shown by their SMILES. Converted amounts (≈) assume the structure as drawn.

Turning to `N#Cc1c(Cl)c(Cl)c(Cl)c(C#N)c1Cl` [Chlorothalonil], the LD50 in series [1] was > 2000 mg/kg-day; in series [5] (dermal), > 40 µg/piece; in series [5] (oral, unspecified), > 40 µg/piece; in series [7], > 5000 mg/kg-day. Besides, the NOEC in series [2] stood at 0.04 mg/L; the NOEC in series [4] was 0.75 mg/kg; the NOEC in series [6] was 0.187 mg/L; the NOEC in [8] is 0.013 mg/L; the NOEC (chronic) was determined as 0.003 mg/L; the NOEC in series [9] turned out to be 0.0004 mg/L. Besides, the LC50 in [3] came to 0.017 µg/mL (≈ 0.0639 µM) and the LC50 (acute, duration: 96 hours, mortality) worked out at 0.0107 µg/mL (≈ 0.0402 µM). The NOAEL in [7] (chronic, duration: 26 months, organ weight) is 1.8 mg/kg-day; in series [7] (reproduction developmental, histopathology: nonneoplastic), < 22.6 mg/kg-day; in [7] (subchronic, duration: 90 days, oral, histopathology: nonneoplastic), 1.5 mg/kg-day; in [10], < 5 mg/kg-day. Besides, the LR50 in [11] was > 262 g/ha.

For the compound `N#Cc1c(O)c(Cl)c(Cl)c(C#N)c1Cl` [4-Hydroxy-2,5,6-trichloroisophthalonitrile], the LD50 in series [1] came to 158 mg/kg-day; in series [7], 242 mg/kg-day. Besides, the NOAEL in series [12] is 10.1 mg/kg-day; in series [7] (reproduction developmental, body weight) it was 1.5 mg/kg-day.
